Experimental data taken from patent US10278957B2, “Opioid agonist peptides and uses thereof” (Protagonist Therapeutics, Inc., priority 2017, dated 2019).
Square brackets hold non-standard residues; d marks the D form. Peptide text beside a SMILES is read from it. Dmt = Cc1cc(O)cc(C)c1C[C@H](N)C(=O)O; β3hF = N[C@H](CC(=O)O)Cc1ccccc1; Sar = CNCC(=O)O

Columns and labels:
[1] = molecular target: T1, μ-opioid receptor (MOR) (Homo sapiens, UniProt P35372); assay: MOR agonist cAMP assay (HitHunter cAMP, forskolin-stimulated); format: cell-based
T1 construct: host or cells: cAMP Hunter CHO-K1 OPRM1 Gαi cell line
In short: (§1)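 CHO-K1 Gαi cells expressing OPRM1 or OPRD1 were exposed 30 min at 37° C to 11-point threefold agonist dilutions, in duplicate, with 20 uM forskolin final. cAMP quantified by EFC chemiluminescent competitive immunoassay against cAMP standards. EC50 by four-parameter Hill nonlinear regression.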

[2] = molecular target: T2, δ-opioid receptor (DOR) (Homo sapiens, UniProt P41143); assay: DOR agonist cAMP assay (HitHunter cAMP, forskolin-stimulated); format: cell-based
T2 construct: host or cells: cAMP Hunter CHO-K1 OPRD1 Gαi cell line
In short: as §1

[3] = SGF assay (stability in simulated gastric fluid); format: in vitro ADME; details: pig, simulated gastric fluid (SGF) with porcine pepsin, pH 2, pepsin, 37° C.
Experimental: SGF was prepared by adding 20 mg NaCl, 32 mg porcine pepsin (MP Biochemicals, catalog 02102599), and 70 μl HCl to 10 ml water (final pH=2). Aliquots of SGF (0.5 ml each) were pre-warmed at 37° C. To start the reaction, 1 μl of opioid agonist peptide stock solution (10 mM in DMSO) was added to 0.5 ml SGF and thoroughly mixed such that the final peptide concentration was 20 μM. The reactions were incubated at 37° C. with gentle shaking.
At each timepoint (0, 15, 30, 60 min) 50 µl aliquots were removed and added to 200 ul of acetonitrile containing 0.1% formic acid to quench the reaction. Samples were stored at 4° C. until the end of the experiment and centrifuged at 10,000 rpm for 5 minutes. Aliquots of the supernatant were removed, diluted 1:1 into distilled water containing internal standard, and analyzed by LCMS/MS. The percent of the opioid agonist peptide remaining at each timepoint was calculated based on the peak area response ratio of the opioid agonist peptide to the internal standard. Time 0 was set to 100%, and all later timepoints were calculated relative to time 0. Half-lives were calculated by fitting to a first-order exponential decay equation using GraphPad.

[4] = SIF assay (stability in simulated intestinal fluid); format: in vitro ADME; details: for half-life at 20 μM: simulated intestinal fluid (SIF) with pancreatin, simulated intestinal fluid, pH 6.8, pancreatin, 37° C.
Experimental: SIF was prepared by adding 6.8 g of monobasic potassium phosphate and 10.0 g of pancreatin to 1.0 L of water. After dissolution, the pH was adjusted to 6.8 using NaOH. DMSO stocks (2 mM) were prepared for each of the opioid agonist peptides. Aliquots of the DMSO solutions were dosed into […], each containing 0.5 mL of SIF, which was pre-warmed to 37° C. The final opioid agonist peptide concentration was 20 μM. The vials were kept in a benchtop Thermomixer® for the duration of the experiment. At each timepoint (0, 5, 10, 20, 40, 60, or 360 minutes or 24 hours), 1.0 mL of acetonitrile containing 1% formic acid was added to one vial to terminate the reaction. Samples were stored at 4° C. until the end of the experiment. After the final timepoint was sampled, the tubes were mixed and then centrifuged at 3,000 rpm for 10 minutes. Aliquots of the supernatant were removed, diluted 1:1 into distilled water containing an internal standard, and analyzed by LCMS/MS. The percent of the opioid agonist peptide remaining at each timepoint was calculated based on the peak area response ratio of opioid agonist peptide to the internal standard. Time 0 was set to 100%, and all later timepoints were calculated relative to time 0. Half-lives were calculated by fitting to a first-order exponential decay equation using Graph pad.

[5] = system: gastro intestinal motility; assay: Gastro Intestinal Motility Charcoal Transit Assay; format: in vivo; details: Table 4; orally dosed; charcoal transit
Experimental: Animals were treated with 0.2 mL croton oil 96 and 72 hours before the gastro intestinal transit (GIT) assay. Animals were fasted overnight prior to charcoal meal dosing. Test and control articles were administered (PO, IP) followed by an oral dose of aqueous suspension of 5% charcoal in 10% gum arabic. […] Charcoal meal test were given 30 min post-test article dose. Twenty minutes after administration of the charcoal test meal, animals were euthanized via CO2 inhalation followed by cervical dislocation, and the small and large intestines were examined to evaluate GI transit and motility. GI transit is expressed as a percentage of the distance traveled by the charcoal test meal divided by the length of the intestine.

[6] = system: visceral pain (writhing); assay: Acetic Acid or Acetylcholine Writhing Assay; format: in vivo; details: PO; FIGS. 3A and 3B
Experimental: Animals were fasted overnight prior to the start of the assay. Test and control article doses, ranging from 3-50 mg/kg, were administered (PO) followed by an IP injection of acetic acid (1.0%) or acetylcholine (10 mg/kg), and immediately placed in a viewing chamber. […] Writhing (abdominal constriction) was defined as a contraction of the abdominal musculature accompanied by arching of the back and extension of the limbs. Latency to first writhe and total number of writhes were recorded. Test articles included oral eluxadoline and two illustrative opioid peptides disclosed herein, Peptide A and Peptide D; and control articles included loperamide and morphine

T2 sequence (P41143 whole entry): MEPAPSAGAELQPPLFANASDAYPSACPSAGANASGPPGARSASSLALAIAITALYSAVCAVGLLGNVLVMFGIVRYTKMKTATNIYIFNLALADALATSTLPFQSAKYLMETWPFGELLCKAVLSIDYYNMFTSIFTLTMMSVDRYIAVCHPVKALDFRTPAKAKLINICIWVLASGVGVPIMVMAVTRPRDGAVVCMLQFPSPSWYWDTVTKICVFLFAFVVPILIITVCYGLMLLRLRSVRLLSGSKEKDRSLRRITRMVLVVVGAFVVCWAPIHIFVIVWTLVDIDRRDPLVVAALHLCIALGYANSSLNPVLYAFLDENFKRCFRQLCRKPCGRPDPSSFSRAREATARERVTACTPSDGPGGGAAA
T1 sequence (P35372 whole entry): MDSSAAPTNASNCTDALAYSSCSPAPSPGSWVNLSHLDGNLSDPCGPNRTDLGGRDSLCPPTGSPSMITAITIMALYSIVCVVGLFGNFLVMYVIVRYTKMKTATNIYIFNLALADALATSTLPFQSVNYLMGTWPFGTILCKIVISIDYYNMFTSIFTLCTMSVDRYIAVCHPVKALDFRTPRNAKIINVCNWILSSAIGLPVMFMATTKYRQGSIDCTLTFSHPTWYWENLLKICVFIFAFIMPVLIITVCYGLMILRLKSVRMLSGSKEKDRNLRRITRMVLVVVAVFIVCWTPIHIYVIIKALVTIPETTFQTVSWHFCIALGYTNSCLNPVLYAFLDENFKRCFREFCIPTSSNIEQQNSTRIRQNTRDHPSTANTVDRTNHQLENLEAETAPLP

## Cc1cc(O)cc(C)c1C[C@H](N)C(=O)N[C@H](Cc1ccc(O)cc1)C(=O)NCC(=O)N[C@H](CC(=O)N(C)CC(N)=O)Cc1ccccc1 [compound 84]
[1]
  EC50: < 1 nM
[2]
  EC50: < 1 nM
[3]
  half-life at 20 μM: > 24 h
[4]
  half-life at 20 μM: > 24 h

## CCCC[C@@H](C(=O)O)N(C)C(=O)C[C@H](Cc1cccc(Cl)c1)NC(=O)CNC(=O)[C@@H](C)NC(=O)[C@@H](N)Cc1c(C)cc(C(N)=O)cc1C [compound 167]
[1]
  EC50: < 1 nM
[2]
  EC50: < 1 nM
[3]
  half-life at 20 μM: > 24 h
[4]
  half-life at 20 μM: > 24 h

## CCCC[C@@H](C(=O)O)N(C)C(=O)C[C@H](Cc1ccccc1C)NC(=O)CNC(=O)[C@@H](C)NC(=O)[C@@H](N)Cc1c(C)cc(O)cc1C [compound 140]
[1]
  EC50: < 1 nM
[2]
  EC50: < 1 nM
[3]
  half-life at 20 μM: 6 to 24 h
[4]
  half-life at 20 μM: 6 to 24 h

## Cc1cc(O)cc(C)c1C[C@H](N)C(=O)N[C@H](C)C(=O)NC(C)(C)C(=O)N[C@H](CC(=O)N(C)CC(N)=O)Cc1ccccc1 [compound 72]
[1]
  EC50: < 1 nM
[2]
  EC50: < 1 nM
[3]
  half-life at 20 μM: 0.167 to 6 h
[4]
  half-life at 20 μM: > 24 h

## Cc1cc(O)cc(C)c1C[C@H](N)C(=O)N[C@H](C)C(=O)N[C@@H](C)C(=O)N[C@H](CC(=O)N(C)CC(N)=O)Cc1ccccc1 [Seq. ID 66, DMT-(D)Ala-Ala-(b-homoPhe)-Sar-NH2] (H-[Dmt][dA]A[β3hF][Sar]-NH2)
[1]; Table 4, MOR EC50 divided by DOR EC50
  Ratio (MOR EC50/DOR EC50): * (for ratio, * indicates between 0.1 and 0.3)
[4]; Table 4, SIF half-life
  SIF (min): **** (for SIF half-life values, **** indicates >1290)
[5]
  % inhibition of GI motility: * (for % inhibition of GI motility, * indicates between 30% and 50%)

## Cc1cc(C(N)=O)cc(C)c1C[C@H](N)C(=O)N[C@H](C)C(=O)NCC(=O)N[C@H](CC(=O)N(C)CC(N)=O)Cc1ccccc1 [compound 70]
[1]
  EC50: < 1 nM
[2]
  EC50: < 1 nM
[3]
  half-life at 20 μM: 0.167 to 6 h
[4]
  half-life at 20 μM: > 24 h

## Cc1cc(O)cc(C)c1C[C@H](N)C(=O)N[C@H](C)C(=O)NCC(=O)N[C@H](CC(=O)N(C)[C@@H](C)C(=O)O)Cc1ccccc1 [compound 111]
[1]
  EC50: < 1 nM
[2]
  EC50: < 1 nM
[3]
  half-life at 20 μM: > 24 h
[4]
  half-life at 20 μM: > 24 h

## CCCC[C@@H](C(=O)O)N(C)C(=O)C[C@H](Cc1ccc(C)cc1)NC(=O)CNC(=O)[C@@H](C)NC(=O)[C@@H](N)Cc1c(C)cc(C(N)=O)cc1C [compound 165]
[1]
  EC50: < 1 nM
[2]
  EC50: < 1 nM
[3]
  half-life at 20 μM: > 24 h
[4]
  half-life at 20 μM: 0.167 to 6 h

## Cc1cc(C(N)=O)cc(C)c1C[C@H](N)C(=O)N[C@H](C)C(=O)NCC(=O)N[C@H](CC(=O)N(C)[C@H](C(=O)O)c1ccccc1)Cc1ccccc1 [compound 99]
[1]
  EC50: < 1 nM
[2]
  EC50: < 1 nM
[3]
  half-life at 20 μM: > 24 h
[4]
  half-life at 20 μM: > 24 h

## Cc1cc(O)cc(C)c1C[C@H](N)C(=O)N[C@H](CC(=O)O)C(=O)NCC(=O)N[C@H](CC(=O)NCC(N)=O)Cc1ccccc1 [compound 179] (H-[Dmt][dD]G[β3hF]G-NH2)
[1]
  EC50: < 1 nM
[2]
  EC50: < 1 nM
[3]
  half-life at 20 μM: > 24 h
[4]
  half-life at 20 μM: > 24 h

## COc1ccc(CN(C(=O)[C@@H](N)Cc2c(C)cc(C(N)=O)cc2C)[C@@H](C)c2ncc(-c3ccccc3)[nH]2)cc1C(=O)O [eluxadoline, reference compound]
[6]
  effect on pain (writhing study): little effect on pain

## CCCC[C@@H](C(=O)O)N(C)C(=O)C[C@H](Cc1ccc(F)cc1)NC(=O)CNC(=O)[C@@H](C)NC(=O)[C@@H](N)Cc1c(C)cc(C(N)=O)cc1C [compound 166]
[1]
  EC50: < 1 nM
[2]
  EC50: < 1 nM
[3]
  half-life at 20 μM: > 24 h
[4]
  half-life at 20 μM: > 24 h

## Cc1cc(C(N)=O)cc(C)c1C[C@H](N)C(=O)N[C@H](C)C(=O)NCC(=O)N[C@H](CC(=O)N(C)[C@@H](C)C(=O)O)Cc1ccccc1 [compound 93]
[1]
  EC50: < 1 nM
[2]
  EC50: < 1 nM
[3]
  half-life at 20 μM: > 24 h
[4]
  half-life at 20 μM: > 24 h

## CCCC[C@@H](C(=O)O)N(C)C(=O)C[C@H](Cc1ccccc1)NC(=O)CNC(=O)[C@@H](C)NC(=O)[C@@H](N)Cc1c(C)cc(C(N)=O)cc1C [compound 101]
[1]
  EC50: 1 to 10 nM
[2]
  EC50: < 1 nM
[3]
  half-life at 20 μM: > 24 h
[4]
  half-life at 20 μM: > 24 h

## Cc1cc(C(N)=O)cc(C)c1C[C@H](N)C(=O)N[C@H](Cc1ccc(O)cc1)C(=O)NCC(=O)N[C@H](CC(=O)N(C)CC(N)=O)Cc1ccccc1 [compound 85]
[1]
  EC50: < 1 nM
[2]
  EC50: < 1 nM
[3]
  half-life at 20 μM: 6 to 24 h
[4]
  half-life at 20 μM: > 24 h

## Cc1cc(C(N)=O)cc(C)c1C[C@H](N)C(=O)N[C@H](C)C(=O)NCC(=O)N[C@H](CC(=O)N(C)CC(=O)O)Cc1ccccc1 [compound 79]
[1]
  EC50: < 1 nM
[2]
  EC50: < 1 nM
[3]
  half-life at 20 μM: > 24 h
[4]
  half-life at 20 μM: > 24 h

## Cc1cc(O)cc(C)c1C[C@H](N)C(=O)NCC(=O)NCC(=O)N[C@H](CC(=O)N(C)CC(N)=O)Cc1ccccc1 [compound 81] (H-[Dmt]GG[β3hF][Sar]-NH2)
[1]
  EC50: < 1 nM
[2]
  EC50: < 1 nM
[3]
  half-life at 20 μM: > 24 h
[4]
  half-life at 20 μM: > 24 h

## Cc1cc(C(N)=O)cc(C)c1C[C@H](N)C(=O)N[C@@H](C(=O)NCC(=O)N[C@H](CC(=O)N(C)CC(N)=O)Cc1ccccc1)[C@H](C)O [compound 76]
[1]
  EC50: 1 to 10 nM
[2]
  EC50: < 1 nM
[3]
  half-life at 20 μM: 0.167 to 6 h
[4]
  half-life at 20 μM: > 24 h

## Cc1cc(O)cc(C)c1C[C@H](N)C(=O)N[C@@H](C(=O)NCC(=O)N[C@H](CC(=O)N(C)CC(N)=O)Cc1ccccc1)[C@H](C)O [compound 82]
[1]
  EC50: < 1 nM
[2]
  EC50: < 1 nM
[3]
  half-life at 20 μM: > 24 h
[4]
  half-life at 20 μM: > 24 h

## Cc1cc(C(N)=O)cc(C)c1C[C@H](N)C(=O)N[C@H](C)C(=O)NCC(=O)N[C@H](CC(=O)N(C)[C@H](C(=O)O)C(C)C)Cc1ccccc1 [compound 96]
[1]
  EC50: < 1 nM
[2]
  EC50: < 1 nM
[3]
  half-life at 20 μM: > 24 h
[4]
  half-life at 20 μM: > 24 h

## Cc1cc(C(N)=O)cc(C)c1C[C@H](N)C(=O)N[C@H](C)C(=O)NCC(=O)N[C@H](CC(=O)N(C)[C@@H](Cc1ccc(O)cc1)C(=O)O)Cc1ccccc1 [compound 102]
[1]
  EC50: < 1 nM
[2]
  EC50: < 1 nM
[3]
  half-life at 20 μM: > 24 h
[4]
  half-life at 20 μM: > 24 h

## Cc1cc(C(N)=O)cc(C)c1C[C@H](N)C(=O)N[C@H](C)C(=O)NCC(=O)N[C@H](CC(=O)N(C)[C@@H](CC(C)C)C(=O)O)Cc1ccccc1 [compound 92]
[1]
  EC50: 1 to 10 nM
[2]
  EC50: < 1 nM
[3]
  half-life at 20 μM: > 24 h
[4]
  half-life at 20 μM: > 24 h

## Cc1cc(O)cc(C)c1C[C@H](N)C(=O)N[C@H](C)C(=O)NCC(=O)N[C@H](CC(=O)N(CC(N)=O)Cc1ccccc1)Cc1ccccc1 [compound 118]
[1]
  EC50: < 1 nM
[2]
  EC50: < 1 nM
[3]
  half-life at 20 μM: > 24 h
[4]
  half-life at 20 μM: > 24 h
